Where a name gives a salt, the structure may show the parent alone. No end group written: not given here.
Columns and labels:
[1] = test system: ALS patients; conditions: background statement, cited from earlier work
[2] = test system: ALS model mice; conditions: background statement; cited from earlier work
[3] = test system: NSC34-SOD1-G93A cell; type: cell-based, mice
Procedure: The action of the said NHK1 peptide upon the complex VDAC1/SOD1-G93A, i.e. the complex formed by the interaction between protein VDAC1 and the mutant enzyme SOD1 (exactly the mutant G93A, where the glycine 93 was replaced by alanine) was evaluated by in vitro and in cellulo experiments, i.e. in the NSC34 cell line. NSC34 is a hybrid cell line obtained by fusing mice motor neurons with neuroblastoma cells. The NSC34 cell line is widely recognized as cell model of motor neurons and, following its transfection with mutated SOD1, it is considered a reference model of ALS [Cashman N R et al. Neuroblastoma×spinal cord (NSC) hybrid cell lines resemble developing motor neurons. Dev. Dyn. […]
The MTT assay is a colorimetric assay aimed to quantify the activity of dehydrogenase enzymes reducing 3-(4,5-dimethyltiazol-2-yl)-2,5-diphenyltetrazolium, yellow, to purple-blue formazan [Mosmann T., Rapid colorimetric assay for cellular growth and survival: application to proliferation and cytotoxicity assays. […]
Cells were seeded on 24-wells plates at a density of 80,000 cells/well, incubated for 24 hours and then transiently transfected with plasmid pEGFP-N1 expressing SOD1WT or SOD1-G93A or a mock. […] The MTT assay was read after 24 hours incubation. […]
The same vitality assay was repeated in the presence of the NHK1 peptide. […] The MTT assay was read after 24 hours incubation. […]

Compound	Efficacy in ALS [1]	further results
CCCCCCCCc1ccc(CCC(N)(CO)CO)cc1 [Fingolimid]	does not show any activity in ALS	–
O=S(=O)(c1cccc2cnccc12)N1CCCNCC1 [Fasudil hydrochloride]	inefficacy in ALS	–
Nc1nc2ccc(OC(F)(F)F)cc2s1 [Riluzole]	–	Extension of life expectation ([1]; ALS, statistical analysis): about three months
C#Cc1cnc2nc(O)n(C(CC)CC)c2n1 [Tirasemvit]	–	Improvement of skeletal muscle strength [2]: did not confirm such ability
IAAQLLAYYFT [NHK1, Isoleucine-Alanine-Alanine-Glutamine-Leucine-Leucine-Alanine-Tyrosine-Tyrosine-Phenylalanine-Threonine]	–	Toxicity for the cell [3]: not toxic at all
CCCN[C@@H]1CCc2nc(N)sc2C1 [Dexpramipexole]	lacks any efficacy in ALS patients	–
O=C([O-])[O-].[Li+].[Li+] [Lithium carbonate]	no influence on disease progression and survival	–
Cc1ccc(NC(=O)c2ccc(CN3CCN(C)CC3)cc2)cc1Nc1nc(-c2cccnc2)cs1 [Masitinib]	inefficacy in ALS	–

Reference: patent publication US10800811B2, “Pharmacologically active peptide compound, process for the preparation and use thereof” (Dipartimento di Scienze Biomediche e Biotecnologiche, priority 2016, dated 2020)
